# Test results reported in ChEMBL document CHEMBL3797052 (Eur J Med Chem, 2016).
# System: not listed separately
# Test: Antiproliferative activity against human HL-60(TB) cells assessed as cell growth at 10^-5 M after 48 hrs by sulforhodamine B assay
# Type: functional
# Conditions: HL-60, 48 h, read-out: Activity
row,SMILES,growth at 10 µM [%]
1,CNC(=O)c1cc(Oc2ccc3nc(NC(=O)c4ccc5ncccc5c4)sc3c2)ccn1,87.5

# System: HT-29
# Test: Antiproliferative activity against human HT-29 cells assessed as cell growth at 10^-5 M after 48 hrs by sulforhodamine B assay
# Type: functional
# Conditions: HT-29, 48 h, read-out: Activity
row,SMILES,growth at 10 µM [%]
1,CNC(=O)c1cc(Oc2ccc3nc(NC(=O)c4ccc5ncccc5c4)sc3c2)ccn1,69.9

# System: not listed separately
# Test: Antiproliferative activity against human COLO205 cells assessed as cell growth at 10^-5 M after 48 hrs by sulforhodamine B assay
# Type: functional
# Conditions: COLO 205, 48 h, read-out: Activity
row,SMILES,growth at 10 µM [%]
1,CNC(=O)c1cc(Oc2ccc3nc(NC(=O)c4ccc5ncccc5c4)sc3c2)ccn1,95.8

# System: KM12
# Test: Antiproliferative activity against human KM12 cells assessed as cell growth at 10^-5 M after 48 hrs by sulforhodamine B assay
# Type: functional
# Conditions: KM12, 48 h, read-out: Activity
row,SMILES,growth at 10 µM [%]
1,CNC(=O)c1cc(Oc2ccc3nc(NC(=O)c4ccc5ncccc5c4)sc3c2)ccn1,101

# System: not listed separately
# Test: Antiproliferative activity against human HCT15 cells assessed as cell growth at 10^-5 M after 48 hrs by sulforhodamine B assay
# Type: functional
# Conditions: HCT-15, 48 h, read-out: Activity
row,SMILES,growth at 10 µM [%]
1,CNC(=O)c1cc(Oc2ccc3nc(NC(=O)c4ccc5ncccc5c4)sc3c2)ccn1,91.1

# System: not listed separately
# Test: Antiproliferative activity against human HCT116 cells assessed as cell growth at 10^-5 M after 48 hrs by sulforhodamine B assay
# Type: functional
# Conditions: HCT-116, 48 h, read-out: Activity
row,SMILES,growth at 10 µM [%]
1,CNC(=O)c1cc(Oc2ccc3nc(NC(=O)c4ccc5ncccc5c4)sc3c2)ccn1,103

# System: not listed separately
# Test: Cytotoxicity against human HCT116 cells assessed as growth inhibition at 10 uM after 2 days by MTT assay
# Type: functional
# Conditions: HCT-116, 48 h, read-out: GI
row,SMILES,inhibition of growth at 10 µM [%]
1,CNC(=O)c1cc(Oc2ccc3nc(NC(=O)c4ccc5ncccc5c4)sc3c2)ccn1,22.5

# System: not listed separately
# Test: Antiproliferative activity against human HOP92 cells assessed as cell growth at 10^-5 M after 48 hrs by sulforhodamine B assay
# Type: functional
# Conditions: HOP-92, 48 h, read-out: Activity
row,SMILES,growth at 10 µM [%]
1,CNC(=O)c1cc(Oc2ccc3nc(NC(=O)c4ccc5ncccc5c4)sc3c2)ccn1,110

# System: not listed separately
# Test: Antiproliferative activity against human OVCAR4 cells assessed as cell growth at 10^-5 M after 48 hrs by sulforhodamine B assay
# Type: functional
# Conditions: OVCAR-4, 48 h, read-out: Activity
row,SMILES,growth at 10 µM [%]
1,CNC(=O)c1cc(Oc2ccc3nc(NC(=O)c4ccc5ncccc5c4)sc3c2)ccn1,87.4

# System: not listed separately
# Test: Antiproliferative activity against human SNB19 cells assessed as cell growth at 10^-5 M after 48 hrs by sulforhodamine B assay
# Type: functional
# Conditions: SNB-19, 48 h, read-out: Activity
row,SMILES,growth at 10 µM [%]
1,CNC(=O)c1cc(Oc2ccc3nc(NC(=O)c4ccc5ncccc5c4)sc3c2)ccn1,95.1

# System: not listed separately
# Test: Cytotoxicity against human SKBR3 cells assessed as growth inhibition at 10 uM after 2 days by MTT assay
# Type: functional
# Conditions: SK-BR-3, 48 h, read-out: GI
row,SMILES,inhibition of growth at 10 µM [%]
1,CNC(=O)c1cc(Oc2ccc3nc(NC(=O)c4ccc5ncccc5c4)sc3c2)ccn1,17.1

# System: NCI-H322M
# Test: Antiproliferative activity against human NCI-H322M cells assessed as cell growth at 10^-5 M after 48 hrs by sulforhodamine B assay
# Type: functional
# Conditions: read-out: Activity
row,SMILES,growth at 10 µM [%]
1,CNC(=O)c1cc(Oc2ccc3nc(NC(=O)c4ccc5ncccc5c4)sc3c2)ccn1,99

# System: not listed separately
# Test: Antiproliferative activity against human Hs 578T cells assessed as cell growth at 10^-5 M after 48 hrs by sulforhodamine B assay
# Type: functional
# Conditions: read-out: Activity
row,SMILES,growth at 10 µM [%]
1,CNC(=O)c1cc(Oc2ccc3nc(NC(=O)c4ccc5ncccc5c4)sc3c2)ccn1,108

# System: MDA-MB-468
# Test: Antiproliferative activity against human MDA-MB-468 cells assessed as cell growth at 10^-5 M after 48 hrs by sulforhodamine B assay
# Type: functional
# Conditions: MDA-MB-468, 48 h, read-out: Activity
row,SMILES,growth at 10 µM [%]
1,CNC(=O)c1cc(Oc2ccc3nc(NC(=O)c4ccc5ncccc5c4)sc3c2)ccn1,73.7

# System: SK-MEL-2
# Test: Antiproliferative activity against human SK-MEL-2 cells assessed as cell growth at 10^-5 M after 48 hrs by sulforhodamine B assay
# Type: functional
# Conditions: SK-MEL-2, 48 h, read-out: Activity
row,SMILES,growth at 10 µM [%]
1,CNC(=O)c1cc(Oc2ccc3nc(NC(=O)c4ccc5ncccc5c4)sc3c2)ccn1,86.2

# System: not listed separately
# Test: Antiproliferative activity against human DU145 cells assessed as cell growth at 10^-5 M after 48 hrs by sulforhodamine B assay
# Type: functional
# Conditions: DU-145, 48 h, read-out: Activity
row,SMILES,growth at 10 µM [%]
1,CNC(=O)c1cc(Oc2ccc3nc(NC(=O)c4ccc5ncccc5c4)sc3c2)ccn1,105

# System: not listed separately
# Test: Antiproliferative activity against human RPMI8226 cells assessed as cell growth at 10^-5 M after 48 hrs by sulforhodamine B assay
# Type: functional
# Conditions: RPMI-8226, 48 h, read-out: Activity
row,SMILES,growth at 10 µM [%]
1,CNC(=O)c1cc(Oc2ccc3nc(NC(=O)c4ccc5ncccc5c4)sc3c2)ccn1,71.9

# System: not listed separately
# Test: Antiproliferative activity against human HCC2998 cells assessed as cell growth at 10^-5 M after 48 hrs by sulforhodamine B assay
# Type: functional
# Conditions: HCC 2998, 48 h, read-out: Activity
row,SMILES,growth at 10 µM [%]
1,CNC(=O)c1cc(Oc2ccc3nc(NC(=O)c4ccc5ncccc5c4)sc3c2)ccn1,106
